Measurements published in patent US20230295106A1 (priority 2019, published 2023).

Tests used:
[1] = target: T1, 5-HT2C edited (accession number AAF35842.1) (Homo sapiens, UniProt P28335, I156V/I160V/N158S); assay: biochemical; settings: 5-HT2C Radioligand Binding Activity
Target sequence in this assay (P28335 33-458 I156V/N158S/I160V limits assumed): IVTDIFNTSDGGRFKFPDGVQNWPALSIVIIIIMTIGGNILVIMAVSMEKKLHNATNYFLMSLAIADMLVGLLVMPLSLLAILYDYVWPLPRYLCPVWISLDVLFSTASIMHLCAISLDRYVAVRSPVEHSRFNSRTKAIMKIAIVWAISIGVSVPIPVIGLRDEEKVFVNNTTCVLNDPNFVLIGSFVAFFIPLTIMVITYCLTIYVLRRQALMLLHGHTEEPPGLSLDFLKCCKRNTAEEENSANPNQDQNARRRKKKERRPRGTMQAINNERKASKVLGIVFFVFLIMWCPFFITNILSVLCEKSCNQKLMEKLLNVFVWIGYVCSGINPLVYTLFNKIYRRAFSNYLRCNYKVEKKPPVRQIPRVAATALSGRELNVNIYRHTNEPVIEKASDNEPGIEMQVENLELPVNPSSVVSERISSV

[2] = target: T1, 5-HT2C edited (accession number AAF35842.1); assay: cell-based; settings: 5-HT2C IPOne Agonism Activity
Target sequence in this assay (P28335 whole entry I156V/N158S/I160V, looked up): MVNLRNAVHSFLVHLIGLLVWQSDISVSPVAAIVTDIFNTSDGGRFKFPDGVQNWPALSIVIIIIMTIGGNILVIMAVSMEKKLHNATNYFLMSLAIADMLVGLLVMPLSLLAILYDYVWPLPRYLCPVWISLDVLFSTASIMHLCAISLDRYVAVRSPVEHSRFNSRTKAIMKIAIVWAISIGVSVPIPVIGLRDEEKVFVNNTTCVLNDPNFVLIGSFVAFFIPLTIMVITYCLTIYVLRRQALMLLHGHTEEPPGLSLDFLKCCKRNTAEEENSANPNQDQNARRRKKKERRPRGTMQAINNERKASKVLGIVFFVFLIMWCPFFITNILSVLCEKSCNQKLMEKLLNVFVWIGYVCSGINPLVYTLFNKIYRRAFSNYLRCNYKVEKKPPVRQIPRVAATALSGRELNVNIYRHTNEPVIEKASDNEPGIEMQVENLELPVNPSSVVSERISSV

[3] = target: human recombinant 5-HT2C edited receptor (accession number AAF35842.1) (Homo sapiens, UniProt P28335, I156V/N158S/I160V); assay: cell-based; settings: read-out: 5-HT2C IPOne Agonism Activity
Sequence of human recombinant 5-HT2C edited receptor (accession number AAF35842.1) (P28335 whole entry I156V/N158S/I160V, looked up): as above

Row | SMILES | IC50 [1] [nM] | EC50 [2] [nM] | EC50 [3] [nM]
1 | CCN(CC)C(=O)[C@@H]1C=C(c2cc(OC)cc(OC)c2)CN(C)C1 (single isomer, unassigned) [Compound 5, 5-(3,5-dimethoxyphenyl)-N,N-diethyl-1-methyl-1,2,3,6-tetrahydropyridine-3-carboxamide] | 101 to 1000 | 101 to 1000 | 
2 | CCN(CC)C(=O)[C@@H]1C=C(c2cc(OC)cc(OC)c2)CN(C)C1 (single isomer, unassigned) [Compound 6, 5-(3,5-dimethoxyphenyl)-N,N-diethyl-1-methyl-1,2,3,6-tetrahydropyridine-3-carboxamide] | 1000 to 10000 | 1000 to 10000 | 
3 | CCN(CC)C(=O)[C@@H]1C=C(c2ccccc2OC)CN(C)C1 (single isomer, unassigned) [Compound 7, N,N-diethyl-5-(2-methoxyphenyl)-1-methyl-1,2,3,6-tetrahydropyridine-3-carboxamide] | 101 to 1000 | 101 to 1000 | 
4 | CCN(CC)C(=O)[C@@H]1C=C(c2ccccc2OC)CN(C)C1 (single isomer, unassigned) [Compound 8, N,N-diethyl-5-(2-methoxyphenyl)-1-methyl-1,2,3,6-tetrahydropyridine-3-carboxamide] | 1000 to 10000 | 1000 to 10000 | 
5 | CCN(CC)C(=O)[C@@H]1C=C(c2cccc(OC)c2)CN(C)C1 (single isomer, unassigned) [Compound 9, N,N-diethyl-5-(3-methoxyphenyl)-1-methyl-1,2,3,6-tetrahydropyridine-3-carboxamide] | 10 to 100 | 10 to 100 | 
6 | CCN(CC)C(=O)[C@@H]1C=C(c2cccc(OC)c2)CN(C)C1 (single isomer, unassigned) [Compound 10, N,N-diethyl-5-(3-methoxyphenyl)-1-methyl-1,2,3,6-tetrahydropyridine-3-carboxamide] | 101 to 1000 | 101 to 1000 | 
7 | CN(C)C1Cc2cccc3ccn(c23)C1 (single isomer, unassigned) [Compound 14, N,N-dimethyl-5,6-dihydro-4H-pyrrolo[3,2,1-ij]quinolin-5-amine] | 10 to 100 | 101 to 1000 | 
8 | CN(C)C1Cc2cccc3ccn(c23)C1 (single isomer, unassigned) [Compound 15, N,N-dimethyl-5,6-dihydro-4H-pyrrolo[3,2,1-ij]quinolin-5-amine] | 101 to 1000 |  | 101 to 1000
9 | NC1Cc2cccc3ccn(c23)C1 (centres unmarked) [Compound 13, 5,6-dihydro-4H-pyrrolo[3,2,1-ij]quinolin-5-amine] | 101 to 1000 | 101 to 1000 | 
10 | CCN(CC)C1Cc2cccc3ccn(c23)C1 (centres unmarked) [Compound 16, N,N-diethyl-5,6-dihydro-4H-pyrrolo[3,2,1-]quinolin-5-amine] | 101 to 1000 | 101 to 1000 | 
11 | NC1Cc2cc(F)cc3ccn(c23)C1 (centres unmarked) [Compound 17, 8-fluoro-5,6-dihydro-4H-pyrrolo[3,2,1-ij]quinolin-5-amine] | 101 to 1000 | 101 to 1000 | 
12 | NC1Cc2c(F)ccc3ccn(c23)C1 (centres unmarked) [Compound 19, 7-fluoro-5,6-dihydro-4H-pyrrolo[3,2,1-ij]quinolin-5-amine] | 101 to 1000 | 101 to 1000 | 
13 | NC1Cc2cc(Cl)cc3ccn(c23)C1 (centres unmarked) [Compound 21, 8-chloro-5,6-dihydro-4H-pyrrolo[3,2,1-ij]quinolin-5-amine] | 101 to 1000 | 101 to 1000 | 
14 | NC1Cc2c(Cl)ccc3ccn(c23)C1 (centres unmarked) [Compound 23, 7-chloro-5,6-dihydro-4H-pyrrolo[3,2,1-ij]quinolin-5-amine] | 101 to 1000 | 101 to 1000 | 
15 | COc1cc2c3c(ccn3CC(N)C2)c1 (centres unmarked) [Compound 25, 8-methoxy-5,6-dihydro-4H-pyrrolo[3,2,1-ij]quinolin-5-amine] | 1000 to 10000 | 1000 to 10000 | 
16 | NC1Cc2cccc3[nH]cc(c23)C1 (centres unmarked) [Compound 27, 1,3,4,5-tetrahydrobenzo[cd]indol-4-amine] | 101 to 1000 | 101 to 1000 | 
